US12559471B2, “1,5-dihydro-2,4-benzodiazepine-3-one derivative and application thereof” (JIANGSU NHWA PHARMACEUTICAL CO., LTD, priority 2020, dated 2026)
Where two headings read alike, the source gives them in different places.

Legend:
5-HT2C receptor = 5-HT2C receptor (Rattus norvegicus (Rat), UniProt P08909)
Description: 2) Preparation of 5-HT2C Membrane
The rat cortex was taken out of a refrigerator at −80° C. and thawed spontaneously. The solution A was added, and the mixture was homogenized for 3-4 s at 4th gear for a total of 4 times and centrifuged at 50000 g for 25 min at 4° C. The supernatant was discarded, and the solution A was added into the precipitate. The mixture was mixed well using a vortex mixer and centrifuged at 50000 g for 25 min at 4° C. (repeated twice). The supernatant was discarded after the centrifugation, and the precipitate was stored at −80° C. for later use.
2) Competitive 5-HT2C Receptor Binding Assay
Step 1: the prepared membrane was suspended in the homogenate B to obtain a 210 mg/mL membrane suspension for later use.
Step 2: 100 μL of the membrane suspension was added into each reaction tube.
Step 3: 100 μL of the solution B was added into a total binding tube (TB), 100 μL of Ketanserin (final concentration: 1.0×10^−5 M) was added into a non-specific binding tube (NB), and 100 μL of test compound was added into each compound binding tube (CB).
Step 4: 10 μL of radioligand ^3H-Mesulergine was added into each reaction tube to reach a final concentration of 3 nM.
Step 5: each reaction tube was incubated at 37° C. for 25 min. After the reaction was completed, the binding ligands were rapidly filtered under reduced pressure, wherein the Whatman test paper GF/C was washed with 0.5% PEI solution 1 h in advance. The filter membrane was fully washed with cold Tris buffer solution, taken out and put into a 4 mL scintillation disc, which was then added with 1 mL toluene scintillation solution and shaken for mixing well.
Step 6: the scintillation disc was put into a liquid scintillation counter for counting.

5-HT2A receptor = 5-HT2A receptor (Homo sapiens (Human), UniProt P28223); experiment: Competitive 5-HT2A receptor binding assay (3H-Ketanserin, CHO-5-HT2A membrane); details: for 2C/2A: ratio of 5-HT2C Ki to 5-HT2A Ki
Description: 1) Preparation of CHO-5-HT2A Receptor Membrane
The precipitate was collected, and the supernatant was discarded. The solution B was added into the precipitate. […] The supernatant was carefully discarded, and the solution B was added into the precipitate again. […] The precipitate obtained was stored at −80° C.
1) Competitive 5-HT2A Receptor Binding Assay
Step 2: 100 μL of the membrane preparation was added into each reaction tube.
After the filtration, the filter membrane was dried at 60° C. and added into a scintillation disc attached with a bottom membrane, which was then added with 40 μL of scintillation liquid, sealed with a top membrane, and left to stand.

[1] = test system: MK-801-induced high activity behavior of mice; experiment: Dizocilpine (MK-801)-induced high activity test in mice; format: in vivo; details: Mus musculus, 1 h, intragastric, MK-801 0.3 mg/kg i.p., 60 min, read-out: ED50 for inhibiting the MK-801-induced high activity behavior
Description: 2. Dizocilpine (MK-801)-Induced High Activity Test in Mice 2.1 Test Method
Mice were stratified according to body weight and then randomly divided into a model control group, a blank control group and drug administration groups. After the administration of a test substance (or a control substance), the mice were placed into an autonomous activity test box (a black polyethylene box with the specification of 29 cm×29 cm×30 cm) for adaptation, and injected with MK-801 at 0.3 mg/kg intraperitoneally 1 h after the intragastric administration. The mice were then placed into the autonomous activity test box for video recording for 60 min. Video analysis was performed after the video recording to evaluate the activity of the mice.

[2] = test system: DOI-induced head shaking behavior of mice; experiment: DOI-induced head shaking (head thrust) test in mice; format: in vivo; details: Mus musculus, intragastric, DOI 1 mg/kg i.p., 0-20 min, read-out: ED50 for inhibiting the DOI-induced head shaking behavior
Description: 1. Head Thrust Test in Mice
Mice were stratified according to body weight and then randomly divided into a model control group, a blank control group and drug administration groups. 1 h after the intragastric administration of a vehicle or a drug, the animals were placed in a beaker (with the diameter of 13 cm and the height of 19 cm) paved with fresh padding, and were injected with a modeling drug DOI ((±)-1-(2,5-dimethoxy-4-iodophenyl)-2-aminopropane hydrochloride or (±)-2,5-dimethoxy-4-iodoamphetamine hydrochloride) intraperitoneally at a dose of 1 mg/kg. The head shaking times of the mice during the 0-20 min after the intraperitoneal injection of DOI were recorded. The head shaking behavior is defined as a rapid rotational twitching or wet dog-like shaking of the mouse head, which is distinguished from normal grooming or exploring behavior.

[3] = read-out: 5-HT2C (Ki value), rat cortex membrane, 3H-Mesulergine
[4] = CHO-5-HT2A membrane, 3H-Ketanserin, read-out: 5-HT2A (Ki value)

5-HT2A receptor, sequence (P28223 whole entry): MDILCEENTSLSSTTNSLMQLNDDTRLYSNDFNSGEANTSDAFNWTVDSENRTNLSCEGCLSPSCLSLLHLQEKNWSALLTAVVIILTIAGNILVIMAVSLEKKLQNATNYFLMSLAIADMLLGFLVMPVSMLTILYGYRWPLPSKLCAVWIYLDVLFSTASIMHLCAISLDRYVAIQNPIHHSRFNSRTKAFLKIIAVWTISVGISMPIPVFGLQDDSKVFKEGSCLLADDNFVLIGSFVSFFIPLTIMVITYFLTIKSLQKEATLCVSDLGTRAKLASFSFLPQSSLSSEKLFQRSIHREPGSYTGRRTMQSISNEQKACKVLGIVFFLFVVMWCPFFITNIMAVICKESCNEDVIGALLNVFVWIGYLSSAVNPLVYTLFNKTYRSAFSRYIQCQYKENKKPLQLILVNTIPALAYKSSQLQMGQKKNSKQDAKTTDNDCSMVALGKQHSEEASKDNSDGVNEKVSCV
5-HT2C receptor, sequence (P08909 33-460): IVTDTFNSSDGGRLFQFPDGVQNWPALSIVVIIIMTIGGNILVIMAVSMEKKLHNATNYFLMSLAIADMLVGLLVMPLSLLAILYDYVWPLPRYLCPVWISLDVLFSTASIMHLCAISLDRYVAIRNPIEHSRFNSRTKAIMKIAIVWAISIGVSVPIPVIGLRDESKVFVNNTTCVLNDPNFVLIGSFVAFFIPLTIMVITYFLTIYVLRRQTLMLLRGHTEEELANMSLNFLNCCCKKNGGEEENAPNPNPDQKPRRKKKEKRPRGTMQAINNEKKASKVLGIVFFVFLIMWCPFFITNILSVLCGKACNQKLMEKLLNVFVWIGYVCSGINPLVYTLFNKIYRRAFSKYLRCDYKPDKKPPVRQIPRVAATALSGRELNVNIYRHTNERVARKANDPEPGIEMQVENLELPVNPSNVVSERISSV

Row | Structure (SMILES) | Ki (5-HT2C receptor; [3]) [nM] | Ki (5-HT2A receptor; [4]) [nM] | 2C/2A (5-HT2A receptor) | further results
1 | COc1ccc(CN2Cc3ccc(F)cc3CN(C3CCN(C)CC3)C2=O)cc1 [NH-K-A19009, 8-fluoro-2-(1-methylpiperidin-4-yl)-4-[(4-methoxyphenyl)methyl]-1,5-dihydro-2,4-benzodiazepine-3-one] | 2.03 | 2.99 | 0.679 | –
2 | CC(C)COc1ccc(CN2Cc3ccccc3CN(C3CCN(C)CC3)C2=O)cc1 [NH-K-A19020, 2-(1-methylpiperidin-4-yl)-4-[[4-(2-methylpropoxy)phenyl]methyl]-1,5-dihydro-2,4-benzodiazepine-3-one] | – | 1.74 | – | –
3 | CC(C)COc1ccc(CN2Cc3cc(Cl)ccc3CN(C3CCN(C)CC3)C2=O)cc1 [NH-K-A190017, 7-chloro-2-(1-methylpiperidin-4-yl)-4-[[4-(2-methylpropoxy)phenyl]methyl]-1,5-dihydro-2,4-benzo diazepine-3-one] | 486 | 1.63 | 298.694 | –
4 | CC(C)COc1ccc(CN2Cc3ccc(F)cc3CN(C3CCN(C)C3)C2=O)cc1 (stereo not drawn) [NH-K-A19015] | – | – | – | Ki (5-HT2C receptor): 0.41 nM; Ki (5-HT2A receptor): 1.69 nM
5 | CN1CCC(N2Cc3cc(F)ccc3CN(Cc3ccc(CC(C)(C)O)cc3)C2=O)CC1 [NH-K-A19010, 7-fluoro-2-[[4-(2-hydroxy-2-methylpropyl)phenyl]methyl]-4-(1-methylpiperidin-4-yl)-1,5-dihydro-2,4-benzodiazepin-3-one] | 18.2 | 20.1 | 0.91 | –
6 | CC(C)Cc1ccc(CN2Cc3ccc(F)cc3CN(C3CCN(C)CC3)C2=O)cc1 [NH-K-A19008, 8-fluoro-2-(1-methylpiperidin-4-yl)-4-[[4-(2-methylpropyl)phenyl]methyl]-1,5-dihydro-2,4-benzodiazepine-3-one] | 42.4 | 5.29 | 7.999 | –
7 | CC(C)COc1ccc(CN2Cc3ccc(F)cc3CC3(CCN(C)CC3)C2=O)cc1 [NH-K-A19019, 7-fluoro-1′-methyl-2-[[4-(2-methylpropoxy)phenyl]methyl]-1,2-dihydrospiro[benzo[c]azepine-4,4′-piperidine]-3(5H)-one] | – | 53.3 | – | –
8 | CC(C)COc1ccc(CN2Cc3cc(F)c(F)cc3CN(C3CCN(C)CC3)C2=O)cc1 [NH-K-A20001, 7,8-difluoro-2-(4-isobutoxybenzyl)-4-(1-methylpiperidin-4-yl)-1,2,4,5-tetrahydro-3H-benzo[e][1,3]diazepin-3-one] | – | 5.98 | – | –
9 | CC(C)COc1ccc(CN2Cc3ccc(F)cc3CN([C@H]3CCN(C)C[C@@H]3F)C2=O)cc1 [NH-K-A19014-0A, (3S,4S)-8-fluoro-2-(1-methyl-3-fluoropiperidin-4-yl)-4-[[4-(2-methylpropoxy)phenyl]methyl]-1,5-dihydro-2,4-benzodiazepine-3-one] | – | 0.002 | 16029.47 | Ki (5-HT2C receptor): 26.1 nM
10 | CC(C)Oc1ccc(CN2Cc3ccc(F)cc3CN(C3CCN(C)CC3)C2=O)cc1F [NH-K-A19012, 8-fluoro-2-(1-methylpiperidin-4-yl)-4-[[(3-fluoro-4-isopropoxy)phenyl]methyl]-1,5-dihydro-2,4-benzodiazepine-3-one] | 9.36 | 0.947 | 9.882 | ED50 [1]: 3.73 mg/kg; ED50 [2]: 0.3 mg/kg
11 | CC(C)CNc1ccc(CN2Cc3ccc(F)cc3CN(C3CCN(C)CC3)C2=O)cc1 [NH-K-A19007, 8-fluoro-2-(1-methylpiperidin-4-yl)-4-[[4-(2-methylpropylamino)phenyl]methyl]-1,5-dihydro-2,4-benzodiazepine-3-one] | 27.3 | 2.72 | 10.040 | –
12 | CC(C)COc1ccc(CN2Cc3ccc(F)cc3CN([C@H]3CCN(C)C[C@H]3F)C2=O)cc1 [NH-K-A19014-0, (3R,4S)-8-fluoro-2-(1-methyl-3-fluoropiperidin-4-yl)-4-[[4-(2-methylpropoxy)phenyl]methyl]-1,5-di hydro-2,4-benzodiazepine-3-one] | – | 4.19 | 0.049 | Ki (5-HT2C receptor): 0.2 nM
13 | CC(C)Oc1ccc(CN2Cc3ccc(F)cc3CN(C3CCN(C)CC3)C2=O)cn1 [NH-K-A19013, 8-fluoro-2-(1-methylpiperidin-4-yl)-4-[[(6-isopropoxy)pyridin-3-yl]methyl]-1,5-dihydro-2,4-benzodiazepine-3-one] | – | 9.78 | – | –
14 | CN1CCC(N2Cc3ccc(F)cc3CN(Cc3ccc(OC4CC4)cc3)C2=O)CC1 [NH-K-A19022, 4-[(4-cyclopropoxyphenyl)methyl]-7-fluoro-2-(1-methylpiperidin-4-yl)-1,5-dihydro-2,4-benzodiaze pine-3-one] | 1.33 | 0.15 | 8.76 | –
15 | CC(C)Oc1ccc(CN2Cc3ccc(F)cc3CN(C3CCN(C)CC3)C2=O)c(F)c1 [NH-K-A19011, 8-fluoro-2-(1-methylpiperidin-4-yl)-4-[[(2-fluoro-4-isopropoxy)phenyl]methyl]-1,5-dihydro-2,4-benzodiazepine-3-one] | – | 12.7 | – | –
